Assay [1] deals with Rhodazain (Trypanosoma brucei rhodesiense, UniProt Q95PM0). Description: Cysteine protease inhibition, progress curve method, rhodazain. The format is biochemical, Trypanosoma brucei rhodesiensi. Conditions: 10 uM Cbz-Leu-Arg-AMC, 100 mM Na acetate pH 5.5, 5 mM cysteine. Here is the method:
(§1) Standard assay conditions for the determination of kinetic constants used 10 uM fluorogenic peptide substrate, Cbz-Phe-Arg-AMC for the cysteine proteases from Leishmania spp and Schistosoma Mansoni, Cbz-Leu-Arg-AMC for the cysteine proteases from Plasmodium falciparum and Trypanosoma brucei rhodesiensi, and Ac-Lys-Glu-Lys-Leu-Arg-AMC (4 uM final substrate concentration) for the cysteine protease from Trypoanosoma cruzi, and were determined in 100 mM Na acetate at pH 5.5 containing 5 mM cysteine. Stock substrate solutions were prepared at concentrations of […] in DMSO with 10 uM (4 uM for Ac-Lys-Glu-Lys-Leu-Arg-AMC) final substrate concentration in the assays. The final DMSO concentration was 2% and the final volume was 100 uL. All assays were conducted at ambient temperature. Product progress curves were generated over 20 to 30 minutes following formation of AMC product.
(§2) Potential inhibitors were evaluated using the progress curve method. Assays were carried out in the presence of variable concentrations of test compound. Reactions were initiated by addition of enzyme to buffered solutions of inhibitor and substrate. Data analysis was conducted according to one of two procedures depending on the appearance of the progress curves in the presence of inhibitors. For those compounds whose progress curves were linear, apparent inhibition constants (Ki,app) were calculated according to equation 1 (Brandt et al., Biochemitsry, 1989, 28, 140):
(§3) v=VmA/[Ka(1+I/Ki,app)+A] (1)
(§4) Where v is the velocity of the reaction with maximal velocity Vm, A is the concentration of substrate with Michaelis constant of Ka, and I is the concentration of inhibitor.
(§5) [AMC]=vsst+(v0−vss)[1−exp (−kobst)]/kobs (2)
(§6) Where [AMC] is the concentration of product formed over time t, v0 is the initial reaction velocity and vss is the final steady state rate. Values for kobs were then analyzed as a linear function of inhibitor concentration to generate an apparent second order rate constant (kobs/inhibitor concentration or kobs/[I]) describing the time-dependent inhibition. A complete discussion of this kinetic treatment has been fully described (Morrison et al., Adv. Enzymol. Relat. Areas Mol. Biol., 1988, 61, 201).
(§7) Exemplary inhibition data for the compounds used in the present method collected in accordance with the above-described procedure are listed in Table I.

Assay [2] has as its target Cruzain (Trypanosoma cruzi, UniProt P25779). As to the kind of experiment: Cysteine protease inhibition, progress curve method, cruzain. The format is biochemical. To be noted: 4 uM Ac-Lys-Glu-Lys-Leu-Arg-AMC, 100 mM Na acetate pH 5.5, 5 mM cysteine; read-out: Cruzain Ki. Here is the method: as §1, §2, §3, §4, §5, §6, §7

Where two headings read alike, the source gives them in different places.

Sequence of Cruzain (P25779 123-337): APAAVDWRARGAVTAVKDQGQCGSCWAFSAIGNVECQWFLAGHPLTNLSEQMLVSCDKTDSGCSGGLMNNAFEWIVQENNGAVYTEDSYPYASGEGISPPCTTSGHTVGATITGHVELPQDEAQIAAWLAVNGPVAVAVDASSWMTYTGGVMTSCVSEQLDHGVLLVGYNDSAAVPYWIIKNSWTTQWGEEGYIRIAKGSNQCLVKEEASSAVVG
Sequence of Rhodazain (Q95PM0 entry or part of it): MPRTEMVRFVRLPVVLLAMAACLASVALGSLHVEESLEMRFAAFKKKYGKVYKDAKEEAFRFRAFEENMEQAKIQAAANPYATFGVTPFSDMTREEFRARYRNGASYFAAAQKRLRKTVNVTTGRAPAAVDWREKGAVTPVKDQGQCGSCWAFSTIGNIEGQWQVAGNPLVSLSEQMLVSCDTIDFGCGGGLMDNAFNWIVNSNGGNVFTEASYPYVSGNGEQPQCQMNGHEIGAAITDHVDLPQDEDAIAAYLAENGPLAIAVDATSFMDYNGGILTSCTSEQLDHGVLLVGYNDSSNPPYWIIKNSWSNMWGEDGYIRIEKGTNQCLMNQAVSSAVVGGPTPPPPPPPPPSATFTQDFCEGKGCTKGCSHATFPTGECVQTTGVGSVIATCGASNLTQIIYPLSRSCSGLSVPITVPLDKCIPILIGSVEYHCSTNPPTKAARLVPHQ

What is called Ki is the equilibrium dissociation constant of an inhibitor or competing ligand from its target. On to “5,6-Dimethoxy-benzofuran-2-carboxylic acid {(S)-3-methyl-1-[3-oxo-1-(1-oxy-pyridine-2-sulfonyl)-azepan-4-ylcarbamoyl]-butyl}amide [Example 48]”, for which the Ki in assay [1] (read-out: Rhodazain Ki) worked out at 4.2 nM; in assay [2], 19 nM.

For the compound “5-(2-Morpholin-4-yl-ethoxy)-benzofuran-2-carboxylic acid {(S)-3-methyl-1-[3-oxo-(1-oxy-pyridine2-sulfonyl)-azepan-4-ylcarbamoyl]-buty}-amide [Example 116]”, the Ki was 3.2 nM in assay [1] (read-out: Rhodazain Ki) and 4.4 nM in assay [2].

In the case of `COc1ccc2oc(C(=O)N[C@H](CC(C)C)C(=O)N[C@@H]3CCCN(S(=O)(=O)c4cccc[n+]4[O-])CC3=O)cc2c1` (single isomer, unassigned) [Example 63], the inhibition constant Ki in assay [1] (Rhodazain Ki (nM)) was determined as 5.9 nM; in assay [2], 9.8 nM.

With `CC(C)C[C@@H](NC(=O)c1ccc(Br)o1)C(=O)N[C@@H]1CCCN(S(=O)(=O)c2ccccn2)CC1=O` (single isomer, unassigned) [Example 68], the Ki in assay [1] (Rhodazain Ki (nM)) stood at 0.93 nM; in assay [2], 3.3 nM.

As for `Cc1c(C(=O)N[C@H](CC(C)C)C(=O)N[C@@H]2CCCN(S(=O)(=O)c3ccccn3)CC2=O)oc2ccccc12` (single isomer, unassigned) [Example 97], the figures for the Ki in assay [1] (Rhodazain Ki (nM)) and in assay [2] were 2.7 nM and 4 nM, respectively.

For `CC(C)C[C@@H](NC(=O)c1cc2sccc2s1)C(=O)N[C@@H]1CCCN(S(=O)(=O)c2ccccn2)CC1=O` (single isomer, unassigned) [Example 98], the Ki in assay [1] (Rhodazain Ki (nM)) stood at 3.9 nM; in assay [2], 5.2 nM.

`O=C(N[C@H](Cc1ccccc1)C(=O)N[C@@H]1CCCN(S(=O)(=O)c2ccccn2)CC1=O)c1ccc2ccccc2n1` (stereo in doubt) [Example 180, Quinoline-2-carboxylic acid {(S)-1-[3-oxo-1-(pyridine-2-sulfonyl)-azepan-4-ylcarbamoyl]-2-phenyl-ethyl}-amide] yielded a Ki in assay [1] (Rhodazain Ki (nM)) of 9.3 nM.

`CC(C)C[C@@H](NC(=O)c1cnc2ccccc2c1)C(=O)N[C@@H]1CCCN(S(=O)(=O)c2ccccn2)CC1=O` [Example 27]: in assay [1] (Rhodazain Ki (nM)), the Ki is 13 nM.

On to `CC(C)C[C@H](NC(=O)c1cc2ccccc2o1)C(=O)N[C@H]1CCCN(S(=O)(=O)c2ncc[nH]2)CC1=O` [Example 41, Benzofuran-2-carboxylic acid {(S)-3-methyl-1-[1-(1H-imidazole-2-sulfonyl)-3-oxo-azepan-4-ylcarbamoyl]-butyl}amide], for which the Ki in assay [1] (Rhodazain Ki (nM)) amounted to 2.9 nM.

In assay [1] (Rhodazain Ki (nM)), `CC(C)C[C@@H](NC(=O)c1cc2sccc2s1)C(=O)N[C@@H]1CCCN(S(=O)(=O)c2cccc[n+]2[O-])CC1=O` [Example 62, Thieno[3,2-b]thiophene-2-carboxylic acid {(S)-3-methyl-1-[3-oxo-1-(1-oxy-pyridine-2-sulfonyl)-azepan-4-ylcarbamoyl]-butyl}amide] came in with a Ki of 5.3 nM.

Turning to `CC(C)C[C@H](NC(=O)c1ccc(-c2ccc(Cl)cc2)o1)C(=O)N[C@@H]1CCCN(S(=O)(=O)c2ccccn2)CC1=O` [Example 65, 5-(4-Chloro-phenyl)-furan-2-carboxylic acid {(S)-3-methyl-1-[3-oxo-1-(pyridine-2-sulfonyl)-azepan-4-ylcarbamoyl]-butyl}amide], the Ki in assay [1] (Rhodazain Ki (nM)) was 8.1 nM.

Take `CC(C)C[C@H](NC(=O)c1nc(-c2ccccc2)oc1C(F)(F)F)C(=O)NC1CCCN(S(=O)(=O)c2ccccn2)CC1=O` (stereo partly drawn) [Example 72, 2-Phenyl-5-trifluoromethyl-oxazole-4-carboxylic acid {(S)-3-methyl-1-[3-oxo-1-(pyridine-2-sulfonyl)-azepan-4-ylcarbamoyl]-butyl}amide]: the affinity in assay [1] (Rhodazain Ki (nM)), expressed as Ki, was 9.9 nM.

In assay [1] (Rhodazain Ki (nM)), `CC(C)CC(NC(=O)c1ccco1)C(=O)N[C@@H]1CCCN(S(=O)(=O)c2cccc[n+]2[O-])CC1=O` (stereo partly drawn) [Example 75, Furan-2-carboxylic acid {(S)-3-methyl-1-[3-oxo-1-(1-oxy-pyridine-2-sulfonyl)-azepan-4-ylcarbamoyl]-butyl}amide] returned a Ki of 7.5 nM.

With `COc1ccc2oc(C(=O)N[C@@H](CC(C)C)C(=O)N[C@H]3CCCN(S(C)(=O)=O)CC3=O)cc2c1` [Example 81, 5-Methoxy-benzofuran-2-carboxylic acid [(S)-1-(1-methanesulfonyl-3-oxo-azepan-4-ylcarbamoyl)-3-methyl-butyl]-amide], the affinity in assay [1] (Rhodazain Ki (nM)) corresponds to a Ki of 7.2 nM.

With `CC(C)C[C@@H](NC(=O)c1cnc2ccccc2n1)C(=O)N[C@@H]1CCCN(S(=O)(=O)c2cccc[n+]2[O-])CC1=O` [Example 101, Quinoxaline-2-carboxylic acid {(S)-3-methyl-1-[3-oxo-1-(1-oxy-pyridine-2-sulfonyl)-azepan-4-ylcarbamoyl]-butyl}amide], the Ki in assay [1] (Rhodazain Ki (nM)) was 11 nM.

Regarding `CC(C)C[C@H](NC(=O)c1cc2ccccc2o1)C(=O)N[C@@H]1CCCN(S(C)(=O)=O)CC1=O` [Example 112, Benzofuran-2-carboxylic acid-{(S)-1-(1-methanesulfonyl-3-oxo-azepan-4-ylcarbamoyl)-3-methyl-butyl]-amide], the Ki in assay [1] (Rhodazain Ki (nM)) was 8.5 nM.

In assay [1] (Rhodazain Ki (nM)), `COc1ccc(C(=O)NC(CC(C)C)C(=O)N[C@@H]2CCCN(S(C)(=O)=O)CC2=O)cc1OC` (stereo partly drawn) [Example 113] displayed a Ki of 7.8 nM.

Regarding `COc1ccc(CCCCC(=O)NC(CC(C)C)C(=O)NC2CCCN(S(=O)(=O)c3ccccn3)CC2=O)cc1` [Example 122, (S)-2-[5-(4-Methoxy-phenyl)-pentanoylamniol-4-methyl-pentanoic acid [3-oxo-1-(pyridine-2-sulfonyl)-azepan-4-yl[-amide], the Ki in assay [1] (Rhodazain Ki (nM)) was determined as 8.8 nM.

`COc1ccc(CC(=O)N[C@@H](CC(C)C)C(=O)NC2CCCN(S(=O)(=O)c3ccccn3)CC2=O)cc1OCc1ccccc1` (stereo partly drawn) [Example 123]: the Ki in assay [1] (Rhodazain Ki (nM)) came out at 31 nM.

Compound `CC(C)C[C@H](NC(=O)c1cnc2ccccc2n1)C(=O)N[C@H]1CCCN(S(=O)(=O)c2nccs2)CC1=O` [Example 129, Quinoxaline-2-carboxylic acid {(S)-3-methyl-1-[3-oxo-1-(thiazole-2-sulfonyl)-azepan-4-ylcarbamoyl]-butyl}amide] displayed an inhibition constant Ki in assay [1] (Rhodazain Ki (nM)) of 5.6 nM.

`O=C(N[C@@H](Cc1ccccc1)C(=O)NC1CCCN(S(=O)(=O)c2ccccn2)CC1=O)c1cccc2cccnc12` (stereo partly drawn) [Example 176, Quinoline-8-carboxylic acid {(S)-1-[3-oxo-1-(pyridine-2-sulfonyl)-azepan-4-ylcarbamoyl]-2-phenyl-ethyl}-amide] had a Ki in assay [1] (Rhodazain Ki (nM)) of 5.9 nM.

With `CC(C)C[C@@H](NC(=O)c1ccc(-c2cccc(C(F)(F)F)c2)o1)C(=O)NC1CCCN(C(=O)c2cccc[n+]2[O-])CC1=O` (stereo partly drawn) [Example 186, 5-(3-Trifluoromethyl-phenyl)-furan-2-carboxylic acid ((S)-3-methyl-1-{3-oxo-1[-1-(1-oxy-pyridin-2-yl)-methanoyl]-azepan-4-ylcarbamoyl}-butyl)-amide], the affinity in assay [1] (Rhodazain Ki (nM)) corresponds to a Ki of 11 nM.

As to `Cc1c(C(=O)N[C@H](CC(C)C)C(=O)N[C@H]2CCCN(S(=O)(=O)c3cccc[n+]3[O-])CC2=O)oc2cc(F)ccc12` [Example 193, 6-Fluoro-3-methyl-benzofuran-2-carboxylic acid {(S)-3-methyl-1-[3-oxo-1-(1-oxy-pyridine-2-sulfonyl)-azepan-4-ylcarbamoyl]-butyl}-amide], in assay [1] (Rhodazain Ki (nM)), the affinity, expressed as Ki, was 8.1 nM.

For `CCc1c(C(=O)N[C@@H](CC(C)C)C(=O)N[C@H]2CCN(S(=O)(=O)c3cccc[n+]3[O-])CCC2=O)oc2ccccc12` [Example 202, 3-Ethyl-benzofuran-2-carboxylic acid {(S)-3-methyl-1-[3-oxo-1-(1-oxy-pyridine-2-sulfonyl)-azepan-4-ylcarbamoyl]-butyl}-amide], the affinity in assay [1] (Rhodazain Ki (nM)) corresponds to a Ki of 8.7 nM.

For the compound `COc1ccc2c(C)c(C(=O)N[C@@H](CC(C)C)C(=O)N[C@H]3CCN(S(=O)(=O)c4cccc[n+]4[O-])CCC3=O)oc2c1` [Example 204, 6-Methoxy-3-methyl-benzofuran-2-carboxylic acid {(S)-3-methyl-1-[3-oxo-1-(1-oxy-pyridine-2-sulfonyl)-azepan-4-ylcarbamoyl]-butyl}-amide], affinity in assay [1] (Rhodazain Ki (nM)) was put at a Ki of 4.5 nM.

In the case of `Cc1coc(C(=O)N[C@@H](CC(C)C)C(=O)N[C@H]2CCCN(C(=O)Nc3ccccc3F)CC2=O)c1` [Example 222, 4-Methyl-furan-2-carboxylic acid {(S)-1-[1-(2-fluoro-phenylcarbamoyl)-3-oxo-azepan-4-ylcarbamoyl]-3-methyl-butyl}-amide], in assay [1] (Rhodazain Ki (nM)), the Ki stood at 4.9 nM.

Consider “Naphthyridine-2-carboxylic acid {(S)-3-methyl-1-[3-oxo-1-(pyridine-2-sulfonyl)-azepan-4-ylcarbamoyl]-butyl}-amide [Example 177]”, for which, in assay [1] (read-out: Rhodazain Ki), the Ki was 9 nM.

The record behind these values is patent US20030044399A1, “Method of treatment” (SmithKline Beecham Corporation, priority 1998, published 2003).
